Data as given in paper PMC8614864, “Bioengineered System for High Throughput Screening of Kv1 Ion Channel Blockers” (Bioengineering, 2021).
Where two headings read alike, the source gives them in different places.

Legend:
KcsA-Kv1.3-RFP [1] = experiment: Direct titration of GFP-labeled toxins on spheroplasts by flow cytometry; assay type: binding
Description: Spheroplasts were prepared according to the previously developed protocol. Briefly, E. coli cells (BL21 (DE3) strain) transformed with pET28a-KcsA-Kv1.3-RFP plasmid were cultivated in a minimal M9 medium at 37 °C up to OD560 = 0.8, then induced with 50 μM IPTG and further grown for 18 h. Cells were harvested by centrifugation (5000× g, 10 min, 4 °C), incubated in buffer A (10 mM Tris–HCl, pH 8.0, 0.5 m sucrose) containing lysozyme (20 μg/mL) for 7 min on ice, then diluted twofold with buffer B (10 mM Tris–HCl, pH 8.0, 0.3 mM ethylenediamine tetraacetic acid) and further incubated for 20 min. Then MgCl2 was added to a final concentration of 10 mM to stabilize the spheroplasts. Obtained in this way, the spheroplast suspension has OD560 of about 0.5 and was diluted for binding assay as described further.
For ligand binding analysis, a series of ligand dilutions were prepared in 12 × 75 mm flow cytometry test tubes. For this, 45 µL of toxin solution with a ten times higher concentration than the maximal concentration on titration curve was prepared. This solution was serially diluted with 3.16-fold step (13.9 µL of toxin solution + 30 µL buffer). These toxin dilutions were supplemented with 270 µL of spheroplast suspension at 10^6 cells/mL to give 300 µL final reaction mixtures. For analysis of displacement of GFP-labeled toxins by unlabeled toxins, spheroplast suspensions were supplemented with 1.1× concentration of GFP-labeled toxin before mixing with unlabeled toxin dilutions. All dilutions were made in a binding buffer: 0.25 M sucrose, […], 2 mM KCl, 50 mM NaCl, 10 mM MgCl2, 0.2% BSA and 50 mM Tris–HCl, pH 7.5.
To ensure equilibrium conditions, we analyzed samples after 90–120 min of incubation without removing toxins. Data acquisition was carried out with FC-500 flow cytometer (Beckman Coulter, Brea, CA, USA) using 488 nm excitation for both GFP and RFP and fluorescence detection with FL1 (505–545 nm) and FL3 (610–630 nm) channels for GFP and RFP, respectively. To minimize background fluorescence, samples were run at low speed that gave approx. 100–500 events/s. Events were triggered by side scatting (SSC) so that RFP-labeled cells constituted approx. 30% of events (Figure 2). Remaining events were also present in the samples of filtered binding buffer without cells, so were likely to be related to system noise (either electronic or optical) but not to the dim spheroplasts.
Automated data analysis was performed by a dedicated script after pre-processing with commercial software. The script was available in user-friendly Jupyter notebook format where data were processed stepwise, and user input-output was realized through an internet browser. This script is designed to process multiple datasets at once and can be easily adjusted for someone’s actual needs.
Initial preprocessing was done with used FlowJo v10 software (Treestar Inc., Wilmington, DE, USA). This was used for gating on cells by forward and side scatter, followed by gating of RFP-positive events (Figure 1) and exporting of gated data in FCS format. This step was preferable since it allowed one to convert data into a conventional FCS format (our flow cytometer import data in LMD file format) and to filter out off-target events such as system noise, cell debris, clumped and untransfected cells (without Kv1.3-RFP in our case). We also created a script for this preprocessing but found it more complicated and less robust than commercial software.
Filtered data were processed stepwise by a dedicated script, written in the Python programming language and available as a Jupyter notebook for running either on a local machine or in a kaggle data cloud (https://www.kaggle.com/georgesharonov/fcsgroupfit, accessed and executed on 14 November 2021). Data processing workflow was designed for high throughput analysis by processing all similar data in a single script execution. The processing steps were detailed within the notebook. […]

KcsA-Kv1.3-RFP [2] = experiment: as above; conditions: slope by linear fitting of reduced data (maximum of normal distribution along GFP axis); one-site binding curve; 90–120 min incubation, 50 mM Tris–HCl pH 7.5 binding buffer; Mean ± SD (SD from fit, single dataset)

“ChTx-GFP: hybrid protein, ChTx tagged N-terminally with eGFP, analogous to AgTx2-GFP; fluorescent probe” was tested, and the “Slope, nonspecific binding” value (KcsA-Kv1.3-RFP [1]; 1 nM labeled toxin + 316 nM ChTx, fitting of all events) was 0.47, the “Slope, nonspecific binding” value (KcsA-Kv1.3-RFP [1]; 1 nM labeled toxin + 316 nM ChTx, fitting of reduced data) was 0.25 and the “Slope (proportional to occupied receptor fraction)” value (KcsA-Kv1.3-RFP [1]; 1 nM labeled toxin, fitting of all events) was 0.55. The “Slope (proportional to occupied receptor fraction)” value (KcsA-Kv1.3-RFP [1]; 1 nM labeled toxin, fitting of reduced data) was 0.56, the “Slope, nonspecific binding” value (KcsA-Kv1.3-RFP [1]; 10 nM labeled toxin + 316 nM ChTx, fitting of all events) was 0.53 and the “Slope, nonspecific binding” value (KcsA-Kv1.3-RFP [1]; 10 nM labeled toxin + 316 nM ChTx, fitting of reduced data) was 0.21. For the same substance, the “Slope (proportional to occupied receptor fraction)” value (KcsA-Kv1.3-RFP [1]; 10 nM labeled toxin, fitting of all events) was 0.87, the “Slope (proportional to occupied receptor fraction)” value (KcsA-Kv1.3-RFP [1]; 10 nM labeled toxin, fitting of reduced data) was 0.84 and the Kd (KcsA-Kv1.3-RFP [1]; binding curve of direct titration, reduced data, nonspecific binding subtracted, flow cytometry, read-out: Kd (printed in Figure 4A)) was 0.735 nM. The Kd (KcsA-Kv1.3-RFP [2]) was 0.74 ± 0.17 nM.
